The CheMixHub viscosity set

Assay: xn = mol fraction of the nth substance listed

CCCC(C)O (stereo not given) + CCCCOC(C)=O
viscosity [mPa·s], 100 kPa
Details | x2 = 0.0809 | x2 = 0.1601 | x2 = 0.2399 | x2 = 0.3501 | x2 = 0.44 | x2 = 0.56 | x2 = 0.65 | x2 = 0.7398 | x2 = 0.85 | x2 = 0.9399
293.15 K | 2.506 | 1.64 | 1.205 | 0.917 | 0.797 | 0.724 | 0.703 | 0.685 | 0.684 | 0.7
298.15 K | 2.253 | 1.525 | 1.121 | 0.853 | 0.744 | 0.668 | 0.656 | 0.644 | 0.644 | 0.656
303.15 K | 2.018 | 1.419 | 1.05 | 0.805 | 0.688 | 0.62 | 0.605 | 0.6 | 0.599 | 0.618
308.15 K | 1.688 | 1.227 | 0.926 | 0.704 | 0.616 | 0.56 | 0.546 | 0.537 | 0.548 | 0.566
313.15 K | 1.407 | 1.016 | 0.775 | 0.619 | 0.548 | 0.504 | 0.488 | 0.48 | 0.496 | 0.52
318.15 K | 1.139 | 0.816 | 0.614 | 0.497 | 0.455 | 0.424 | 0.416 | 0.421 | 0.448 | 0.476
323.15 K | 0.874 | 0.6 | 0.438 | 0.365 | 0.343 | 0.338 | 0.341 | 0.358 | 0.391 | 0.432

CCCCNCCCC + CCCCOCCO
viscosity [mPa·s], 100 kPa
Details | 298.15 K | 303.15 K | 308.15 K
x2 = 0.0501 | 0.94 | 0.85 | 0.8
x2 = 0.1169 | 1.1 | 1.01 | 0.93
x2 = 0.1502 | 1.19 | 1.07 | 1
x2 = 0.2006 | 1.34 | 1.17 | 1.08
x2 = 0.3001 | 1.58 | 1.35 | 1.25
x2 = 0.4001 | 1.82 | 1.55 | 1.43
x2 = 0.5 | 2.14 | 1.83 | 1.63
x2 = 0.5999 | 2.42 | 2.12 | 1.84
x2 = 0.6998 | 2.7 | 2.33 | 2.09
x2 = 0.8 | 2.97 | 2.5 | 2.28
x2 = 0.8965 | 3.1 | 2.61 | 2.38
x2 = 0.95 | 2.97 | 2.56 | 2.32

CCCCNCCCC + CCCO
viscosity [mPa·s], 101.33 kPa
Details | x1 = 0.0988 | x1 = 0.1893 | x1 = 0.3012 | x1 = 0.4041 | x1 = 0.4964 | x1 = 0.59 | x1 = 0.693 | x1 = 0.7809 | x1 = 0.8947
303.15 K | 1.681 | 1.564 | 1.404 | 1.276 | 1.176 | 1.084 | 0.9942 | 0.9209 | 0.832
313.15 K | 1.309 | 1.228 | 1.123 | 1.03 | 0.9494 | 0.8887 | 0.8255 | 0.7761 | 0.7157

CCCCNCCCC + CCO
viscosity [mPa·s], 101.33 kPa
Details | x1 = 0.1169 | x1 = 0.2094 | x1 = 0.3171 | x1 = 0.3921 | x1 = 0.4922 | x1 = 0.6159 | x1 = 0.712 | x1 = 0.7802 | x1 = 0.8995
303.15 K | 1.107 | 1.126 | 1.099 | 1.065 | 1.008 | 0.9427 | 0.8965 | 0.8625 | 0.8089
313.15 K | 0.9037 | 0.9066 | 0.8803 | 0.8493 | 0.8109 | 0.766 | 0.7426 | 0.7261 | 0.6965

CCOC(=O)C(=O)OCC + CCO
viscosity [mPa·s]
Details | 303.15 K | 313.15 K | 323.15 K
101 kPa, x1 = 0.1003 | 0.935 | 0.799 | 0.667
101 kPa, x1 = 0.2024 | 0.948 | 0.809 | 0.68
101 kPa, x1 = 0.3028 | 0.988 | 0.836 | 0.711
101 kPa, x1 = 0.4015 | 1.045 | 0.879 | 0.751
101 kPa, x1 = 0.4917 | 1.108 | 0.93 | 0.793
101 kPa, x1 = 0.5907 | 1.177 | 0.99 | 0.845
101 kPa, x1 = 0.6942 | 1.259 | 1.063 | 0.909
101 kPa, x1 = 0.8049 | 1.362 | 1.151 | 0.987
101 kPa, x1 = 0.903 | 1.484 | 1.233 | 1.061
101.33 kPa, x1 = 0.1001 | 0.948 | – | –
101.33 kPa, x1 = 0.2004 | 0.968 | – | –
101.33 kPa, x1 = 0.2897 | 1.009 | – | –
101.33 kPa, x1 = 0.398 | 1.069 | – | –
101.33 kPa, x1 = 0.5098 | 1.146 | – | –
101.33 kPa, x1 = 0.5982 | 1.213 | – | –
101.33 kPa, x1 = 0.6828 | 1.283 | – | –
101.33 kPa, x1 = 0.77 | 1.371 | – | –
101.33 kPa, x1 = 0.8931 | 1.515 | – | –

COCCO + CCO
viscosity [mPa·s], 101 kPa
Details | x1 = 0.06304 | x1 = 0.133 | x1 = 0.206 | x1 = 0.2876 | x1 = 0.3771 | x1 = 0.476 | x1 = 0.5856 | x1 = 0.7078 | x1 = 0.8449
298.15 K | 1.051 | 1.024 | 1.019 | 1.031 | 1.053 | 1.084 | 1.173 | 1.286 | 1.415
308.15 K | 0.8342 | 0.8445 | 0.8576 | 0.8812 | 0.9063 | 0.9409 | 1.003 | 1.07 | 1.105
318.15 K | 0.7622 | 0.7704 | 0.773 | 0.8002 | 0.847 | 0.868 | 0.911 | 0.923 | 0.9633

COCCO + CCOC(=O)OCC
298.15 K, 101.33 kPa
Details | viscosity [mPa·s]
x1 = 0.0272 | 0.752
x1 = 0.0413 | 0.754
x1 = 0.0549 | 0.755
x1 = 0.0747 | 0.755
x1 = 0.0907 | 0.759
x1 = 0.1297 | 0.765
x1 = 0.1593 | 0.772
x1 = 0.224 | 0.791
x1 = 0.2925 | 0.814
x1 = 0.3392 | 0.835
x1 = 0.4073 | 0.866
x1 = 0.4273 | 0.877
x1 = 0.456 | 0.892
x1 = 0.4715 | 0.902
x1 = 0.5283 | 0.939
x1 = 0.5966 | 0.99
x1 = 0.6278 | 1.015
x1 = 0.6808 | 1.062
x1 = 0.7227 | 1.106
x1 = 0.7552 | 1.142
x1 = 0.8011 | 1.197
x1 = 0.8428 | 1.253
x1 = 0.8647 | 1.285
x1 = 0.8826 | 1.313
x1 = 0.9127 | 1.359
x1 = 0.9464 | 1.418
x1 = 0.9674 | 1.455
x2 = 0.0047 | 1.512
x2 = 0.0149 | 1.491

C1CCNCC1 + CCOC(C)=O
303.15 K, 101 kPa
Details | viscosity [mPa·s]
x1 = 0.1 | 0.45
x1 = 0.2 | 0.49
x1 = 0.3 | 0.53
x1 = 0.4 | 0.565
x1 = 0.5 | 0.625
x1 = 0.6 | 0.71
x1 = 0.7 | 0.795
x1 = 0.8 | 0.895
x1 = 0.9 | 1.04

CCOC(=O)C(=O)OCC + CCOC(C)=O
viscosity [mPa·s], 101 kPa
Details | x1 = 0.0949 | x1 = 0.196 | x1 = 0.3019 | x1 = 0.4065 | x1 = 0.5006 | x1 = 0.6036 | x1 = 0.6954 | x1 = 0.7993 | x1 = 0.8948
303.15 K | 0.458 | 0.535 | 0.636 | 0.736 | 0.844 | 0.978 | 1.107 | 1.265 | 1.428
313.15 K | 0.423 | 0.486 | 0.56 | 0.647 | 0.734 | 0.847 | 0.95 | 1.081 | 1.203
323.15 K | 0.381 | 0.436 | 0.499 | 0.571 | 0.646 | 0.74 | 0.825 | 0.928 | 1.028

COCCO + CCOC(C)=O
viscosity [mPa·s], 101 kPa
Details | x1 = 0.0974 | x1 = 0.1945 | x1 = 0.2964 | x1 = 0.3997 | x1 = 0.4973 | x1 = 0.5922 | x1 = 0.6956 | x1 = 0.8008 | x1 = 0.9012
298.15 K | 0.47 | 0.514 | 0.572 | 0.644 | 0.736 | 0.838 | 0.992 | 1.19 | 1.421
303.15 K | 0.444 | 0.484 | 0.536 | 0.601 | 0.683 | 0.775 | 0.912 | 1.086 | 1.286
308.15 K | 0.42 | 0.456 | 0.514 | 0.564 | 0.636 | 0.719 | 0.84 | 0.994 | 1.173

CCCC[N+](C)(CCCC)CCCC.N#C[N-]C#N + CC[n+]1ccn(C)c1.N#C[N-]C#N
Details | viscosity [mPa·s]
323.15 K, 101 kPa, x2 = 0.2114 | 42.05

CC(=O)OC(C)C + CCc1ccccc1
viscosity [mPa·s], 101 kPa
Details | x1 = 0.1056 | x1 = 0.2037 | x1 = 0.3116 | x1 = 0.4048 | x1 = 0.5112 | x1 = 0.6089 | x1 = 0.7156 | x1 = 0.811 | x1 = 0.9403
303.15 K | 0.582 | 0.567 | 0.551 | 0.538 | 0.523 | 0.51 | 0.496 | 0.484 | 0.467
313.15 K | 0.523 | 0.509 | 0.494 | 0.482 | 0.469 | 0.457 | 0.445 | 0.434 | 0.42

CC(=O)OCC(C)C + CCc1ccccc1
viscosity [mPa·s], 101 kPa
Details | x1 = 0.0948 | x1 = 0.1767 | x1 = 0.2601 | x1 = 0.3586 | x1 = 0.4735 | x1 = 0.5727 | x1 = 0.7004 | x1 = 0.7989 | x1 = 0.8805 | x1 = 0.9463
303.15 K | 0.596 | 0.597 | 0.599 | 0.602 | 0.606 | 0.61 | 0.616 | 0.623 | 0.63 | 0.635
313.15 K | 0.527 | 0.528 | 0.529 | 0.53 | 0.534 | 0.539 | 0.545 | 0.552 | 0.559 | 0.569

[Cl-].[Li+] + CN1CCCC1=O
298.15 K, 101 kPa
Details | viscosity [mPa·s]
x1 = 0.03756 | 2.607
x1 = 0.03819 | 2.63
x1 = 0.04156 | 2.626
x1 = 0.07132 | 3.558
x1 = 0.07175 | 3.558
x1 = 0.07229 | 3.56
x1 = 0.1038 | 4.959
x1 = 0.1042 | 4.958
x1 = 0.1044 | 4.958
